The text below walks through data of a melting point compilation (Tetko et al.; mined from patent text by program, amines drawn as free bases though some values may be those of a salt).

Some results are limits rather than exact numbers.

Take `OC1CCCc2nc3ccccc3c(NCc3ccccc3C(F)(F)F)c21` (stereo unspecified): the melting point (as a rule, the temperature of the solid-liquid transition) lay in the range of 158 to 160 °C.

The compound `CCOC(=O)c1ccc(NCCCOc2ccccc2)cc1` returned a melting point of 73 to 74 °C.

`CC(C)Cn1c(C(=O)O)c(-c2ccc(F)cc2)c2cc(OCc3ccccc3)ccc2c1=O`: the melting point is 236 to 237 °C.

With `Nc1nc(NCCNCC(O)COc2ccccc2)c2ccccc2n1` (stereo unspecified), the melting point was 152 to 156 °C.

For the compound `Cc1c(C)c(N2CCN(c3ccc(S(C)(=O)=O)cc3)CC2)c(C)c2c1OC(C)(C)C2`, the melting point was in the range of 256 to 260 °C.

On to `CCCC(NS(=O)(=O)c1ccc(Cl)cc1)C(=O)NN` (stereo unspecified), for which the melting point amounted to 120 °C.

Take `CCCc1c(OC)n2c3c(=O)n(C)c(=O)n(C)c3nc2n(Cc2ccccc2)c1=O`: the melting point was in the range of 199 to 201 °C.

As to `CC(c1ccccc1N1CCCCC1)C(C(N)=O)c1ccc(C(=O)OCc2ccccc2)cc1` (stereo unspecified), the melting point lay within 126 to 128 °C.

As for `Cc1c(C(=O)OC(C)C)ncc2[nH]c3cccc(Oc4ccc(Cl)cn4)c3c12`, the melting point was in the range of 243 to 245 °C.

On to `Cc1c(CN2CCN(c3cccc(Cl)c3)C2=O)ncn1C(c1ccccc1)(c1ccccc1)c1ccccc1`, for which the melting point was in the range of 189 to 191 °C.

`O=C(Cc1cccc2ccccc12)Nc1cc(C2CC(NC(=O)C3CC3c3ccccc3)C2)[nH]n1` (stereo unspecified): the melting point was found to be 140 °C.

In turn, `O=C(CCc1cccnc1)NCCCC1CCN(C(c2ccccc2)c2ccccc2)CC1` registered a melting point of 109 to 110 °C.

The compound `CCC(=O)c1c(C(=O)C(C)C)c2ccc(C(N)=O)cc2n1Cc1ccccc1Cl` had a melting point of 145 to 147 °C.

As to `Cc1ccc2cc3nc4cccc(Cl)c4c-3[nH]c2c1`, the melting point lay within 193 to 194 °C.

With `CCS(=O)(=O)n1cc(C(=O)c2ccn3c2CSC3c2cccnc2)c2ccc(-c3ccc(F)cc3)cc21` (stereo unspecified), the melting point came out at 132 °C.

The compound `N#Cc1c(N)nc2ccc([N+](=O)[O-])cc2c1O` showed a melting point above 360 °C.

`O=C(NCC1Cc2cccc(-c3ccc(C(F)(F)F)cc3)c2O1)OCc1ccccc1` (stereo unspecified): the melting point lay in the range of 100 to 102 °C.

In the case of `O=C(O)Cc1ccc(NC(=O)c2ccccc2SSc2ccccc2C(=O)Nc2ccc(CC(=O)O)cc2)cc1`, the melting point was in the range of 257 to 260 °C.

`Cc1oc(-c2ccco2)nc1COc1ccc(Cn2cc(CCC(=O)O)c(-c3ccc(C(F)(F)F)cc3)n2)cc1` showed a melting point of 92 to 93 °C.

Compound `FC(F)(F)c1ccc(Cl)c(CN2CCNc3ncc(I)cc32)c1` yielded a melting point of 120 to 125 °C.

Regarding `CCNC1=CC(=O)c2c(OC)ccc(OC)c2C1=O`, the melting point lay in the range of 172 to 173 °C.

Compound `Cc1ccc(S(=O)(=O)N2CCC(Sc3ccc(Cl)c(Cl)c3)CC2)cc1` registered a melting point of 79 to 80 °C.

`Oc1ccc(-c2nc3ccccc3o2)cc1` registered a melting point of 253 °C.

Compound `CC(=O)NC(C)COC1CCC(c2nc3ccc(OCC4CC4)cc3o2)CC1` (stereo unspecified) showed a melting point of 131 to 132 °C.

The compound `Cc1cc(C(=O)NCC(N)=O)cc(-c2cccc3cc(Cc4cccc(C(F)(F)F)c4)sc23)n1` registered a melting point of 183 to 184 °C.

Compound `CCOC(=O)c1c(-c2ccccc2C)c2cc(Cl)ccc2oc1=O` yielded a melting point of 65 to 66 °C.

In turn, `NS(=O)(=O)c1ccc(-n2nc(C(F)(F)F)cc2-c2nc3cccc(F)c3s2)cc1` yielded a melting point of 251 to 253 °C.

`COc1ccc(C2=C(CC(C)N)C(=O)NCCC2)cc1` (stereo unspecified): the melting point fell in the range of 131 to 133 °C.

As to `Cc1ccc2c([N+](=O)[O-])c(F)ccc2n1`, the melting point was in the range of 105 to 108 °C.

With `NC(=O)[C@H]1CN(c2cc(F)c(N3CCOCC3)c(F)c2)C(=O)O1`, the melting point was in the range of 181 to 183 °C.

`O=[N+]([O-])c1ccc(-n2ncnc2-c2cnccn2)cc1`: the melting point was 188 to 189 °C.

The compound `N#Cc1ccc(N)cc1Sc1ccccc1` gave a melting point of 69 to 71 °C.

`CC(=O)C1CCc2c([nH]c3ccc(Cl)cc23)C1` (stereo unspecified): the melting point lay within 159 to 161 °C.

`CC(=O)C(C)(C)COS(=O)(=O)c1ccc(C)cc1` displayed a melting point of 49 to 52 °C.

With `ON=C1CCC(c2ccccc2)CC1c1ccccc1` (stereo unspecified), the melting point fell in the range of 214 to 215 °C.

As to `COc1ccc(C2CC(c3ccc(O)cc3)C2)cc1` (stereo unspecified), the melting point lay in the range of 96 to 110 °C.

`N=C(Nc1cc(Cl)cc(NC(=O)/C=C/c2ccccc2Cl)c1)c1ccccc1` yielded a melting point of 105 to 115 °C.

`O=[N+]([O-])C=CC1=CCN(c2ccccc2)N1` yielded a melting point of 150 °C.

On to `CC(C)C[C@H](NC(=O)OCC1CCCCC1)C(=O)N[C@@H](CC(C)C)C(=O)N[C@@H](C(C)C)[C@@H](O)c1c(-c2ccccc2)c1=O`, for which the melting point was in the range of 109 to 116 °C.

`CCCc1ccc(S(=O)(=O)Nc2ccc3oncc3c2)cc1` displayed a melting point of 130 to 131 °C.

Compound `O=C1c2ccccc2C(=O)N1CCSc1nccc(NC(=S)NCC(F)(F)F)n1` returned a melting point of 238 to 241 °C.

With `NC(=O)Nc1ccc2oc([N+](=O)[O-])c(-c3ccccc3)c2c1`, the melting point lay within 230 to 232 °C.

Compound `NCc1ccc(C(=O)NC2CCN(C3CCCCC3)C2)cc1` (stereo unspecified) gave a melting point of 125 to 129 °C.

In turn, `O=C1NC(=O)c2ccc(Br)cc2/C1=C/Nc1ccc(CN2CCCC2)cc1` had a melting point of 165 to 166 °C.

For `Cc1[nH]cc(C#N)c1-c1ccc(Cl)cc1C(=O)c1ccccc1Cl`, the melting point lay within 206 to 208 °C.

In turn, `COc1ccc(C2=NN(Cc3ccccc3)C(=O)[C@H]3CC=CC[C@@H]23)cc1OC` (relative stereo) registered a melting point of 133 to 135 °C.

For the compound `NS(=O)(=O)c1ccc(-c2cnn(C3=CC=CC(F)(F)C3F)c(=O)c2-c2ccc(F)cc2)cc1` (stereo unspecified), the melting point lay in the range of 190 to 193 °C.

In the case of `COc1ccc(S(=O)(=O)Nc2nc(-c3cccc4ccccc34)cs2)cc1OC`, the melting point was 132 to 133 °C.

`CCCCCCCCS(=O)(=O)ON=C(C#N)c1cccs1` had a melting point of 77 to 82 °C.

`COc1ccc2c(c1)C(c1ccc(Cl)cc1)=NC(CC(=O)NC1CCCCC1)c1nnc(C)n1-2` (stereo unspecified) returned a melting point above 260 °C.

`Cc1cc(-c2cc(=O)c3ccccc3o2)cc(C)c1O` gave a melting point of 255 to 256 °C.

In turn, `Clc1cnc2c(NCc3ccccc3)nc(Cl)nc2c1` came in with a melting point of 169 to 170 °C.

Regarding `CNc1c(F)c(F)c(F)c2c1c(=O)c(C(=O)O)cn2C1CC1`, the melting point lay within 205 to 207 °C.

On to `CCCc1nc2c(N)nc3cc(OCC(=O)c4ccccc4)ccc3c2n1CC(C)C`, for which the melting point lay within 178 to 180 °C.

`CC(C)(C=O)Cc1cc(C(C)(C)C)c(O)c(C(C)(C)C)c1`: the melting point fell in the range of 72 to 74 °C.

The compound `OC1Cc2c(I)cccc2CC1N1CCC(c2ccccc2)CC1` (stereo unspecified) registered a melting point of 194 °C.

Compound `COC(=O)C1C(Sc2ccccc2)CC2CCC1N2C` (stereo unspecified) showed a melting point of 55 to 57 °C.

The compound `CC(C)c1[nH]nc2c1C(=O)c1c(NC(=O)NN3CCN(C)CC3)cccc1-2` yielded a melting point of 231 to 233 °C.

The compound `CCOC(=O)C1C=CC(c2ccccc2)n2c(=O)n(CO)c(=O)n21` (stereo unspecified) showed a melting point of 129 to 133 °C.

`COC(=O)NCC1Cc2cc(Cl)c3ccccc3c2O1` (stereo unspecified) returned a melting point of 128 to 130 °C.

In turn, `O=C(Cl)N1CCC(Oc2cccc3c2CCC3)C1` (stereo unspecified) yielded a melting point of 128 to 129 °C.

`CON=C(C)c1cc(C#N)c(=O)[nH]c1C`: the melting point was in the range of 275 to 285 °C.

`COc1ccc2nc3[nH]cnc(=O)c3cc2c1` returned a melting point above 300 °C.

`COC(=O)C=CC(C)=Cc1cc(N)ccc1Cl` came in with a melting point of 47 to 50 °C.

Take `CCCCC1(CCCC)CCc2c(OCc3ccc4ccccc4n3)ccc(Cl)c2C1O` (stereo unspecified): the melting point lay within 142 to 144 °C.

As to `CC1(CN2CCC(C(=O)c3ccc(C(F)(F)F)cc3)CC2)Cn2cc([N+](=O)[O-])nc2O1` (stereo unspecified), the melting point was 172 to 174 °C.

For `Cn1nc(-c2ccc(C(=O)N3CCN(C4CCCC4)CC3)cc2)ccc1=O`, the melting point lay in the range of 177 to 179 °C.

`OCc1ccc(-c2ccc(-c3cn([C@H]4CN5CCC4CC5)nn3)s2)cc1` registered a melting point of 253 °C.

Consider `CCOC(=O)N1Cc2cc(NN=C(C)C)nnc2C(C)C1` (stereo unspecified), for which the melting point was 140 to 142 °C.

Compound `COc1cc(OC)c(C(=O)CCCCN2CCC3(CC2)NC(=O)NC3=O)cc1NS(=O)(=O)c1ccc(C(F)(F)F)cc1` had a melting point of 226 °C.

In turn, `COc1ccc(CNc2n[nH]cc2C#N)cc1OC1CCCC1` had a melting point of 159 to 160 °C.

The compound `CCN(Cc1ccccc1)C(=O)Cc1c(-c2ccc(Cl)c(Cl)c2)nc2cc(C)ccn12` came in with a melting point of 180 to 182 °C.

In turn, `Clc1ccc2c(c1)N=C(NCCn1ccnc1)c1ccccc1N2` displayed a melting point of 168 to 170 °C.

Take `CC#CC1(O)CCC2C3CCC4=CC(=O)CCC4C3C(C(F)F)CC21C` (stereo unspecified): the melting point fell in the range of 191 to 193 °C.

Consider `COc1ccc(NN=C(Sc2ccc(C)c(C)c2)C(C)=O)cc1`, for which the melting point is 138 to 141 °C.

The compound `O=C(NCC(=O)N1CCCC1)c1ccc(-c2ccc3nnn(Cc4ccc5ncccc5c4)c3n2)cc1F` yielded a melting point of 175 to 177 °C.

Regarding `CCCN(c1nc(-c2ccc(OC)cc2Cl)c(C)s1)c1cc([N+](=O)[O-])ccc1OC`, the melting point amounted to 97 °C.

In the case of `N=c1sc2cc(OC(F)(F)F)ccc2n1CCSCCCC(=O)c1ccccc1`, the melting point is 72 °C.

As to `CCOC(=O)c1nc(NC(=N)N=CN(C)C)sc1-c1ccncc1`, the melting point lay in the range of 203 to 204 °C.

In turn, `CC(C)c1ccc(S(=O)(=O)n2c(Cc3ccc(C(=O)O)c(O)c3)cc3cc(C(F)(F)F)ccc32)cc1` showed a melting point of 150 °C.

Compound `COC(=O)c1ccc(COC2OC(CO)C(O)C(O)C2O)o1` (stereo unspecified) came in with a melting point of 72 °C.

For the compound `O=S(=O)(Oc1cccc(OS(=O)(=O)C(F)(F)F)c1OS(=O)(=O)C(F)(F)F)C(F)(F)F`, the melting point was in the range of 47.5 to 48.5 °C.

The compound `CCOC(=O)c1cc(=O)c2c(OCC(O)COc3ccc(Cl)cc3)cccc2o1` (stereo unspecified) registered a melting point of 98 to 100 °C.

For `O=C1OCc2c1oc1c(F)cccc1c2=O`, the melting point came out at 164 °C.

In turn, `COc1ccc(C(=C/C=C/C(=O)O)c2ccc(OC)cc2)cc1` came in with a melting point of 187 to 189 °C.

`COc1ccc(C[C@@H]2COc3ccc(OCc4ccc5ccccc5n4)cc3[C@@H]2O)cc1C(=O)O` (relative stereo) showed a melting point of 167 to 169 °C.
